Assay results reported in patent US11566007B2, “Ras inhibitors” (Revolution Medicines, Inc., priority 2019, dated 2023).
Where “and” joins values, the source holds several entries; their conditions need not be identical. Equal entries are not always repeated. Where two headings read alike, the source gives them in different places.

What was measured:
KRAS G12V = KRAS G12V (Homo sapiens (Human), UniProt P01116+P62937, G12V); experiment: Ras-Raf (BRAF RBD) disruption / FRET / MOA assay, KRAS G12V; type: biochemical; details: read-out: IC50* KRAS G12V FRET data
Protocol: (§1) The purpose of this biochemical assay is to measure the ability of test compounds to facilitate ternary complex formation between a nucleotide-loaded Ras isoform and cyclophilin A; the resulting ternary complex disrupts binding to a BRAF^RBD construct, inhibiting Ras signaling through a RAF effector.
(§2) Compound is present in plate wells as a 10-point 3-fold dilution series starting at a final concentration of 30 μM. After incubation at 25° C. for 3 hours, a mixture of Anti-His Eu-W1024 and anti-GST allophycocyanin is then added to assay sample wells at final concentrations of 10 nM and 50 nM, respectively, and the reaction incubated for an additional 1.5 hours. […] Compounds that facilitate disruption of a Ras:RAF complex are identified as those eliciting a decrease in the TR-FRET ratio relative to DMSO control wells.
(§3) This protocol may also be executed substituting other Ras proteins or nucleotides.
(§4) The purpose of this biochemical assay was to measure the ability of test compounds to facilitate ternary complex formation between a nucleotide-loaded K-Ras isoform and Cyclophilin A; the resulting ternary complex disrupts binding to a BRAF^RBD construct, inhibiting K-Ras signaling through a RAF effector. Data is reported as IC50 values.
as §2, with “Compound was” for “Compound is”, “allophycocyanin was” for “allophycocyanin is”, “a K-Ras:RAF” for “a Ras:RAF”, “complex were” for “complex are”

KRAS G12D = KRAS G12D (Homo sapiens (Human), UniProt P01116+P62937, G12D); experiment: Ras-Raf (BRAF RBD) disruption / FRET / MOA assay, KRAS G12D; type: biochemical
Method in brief: (§5)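 Ras:RAF disruption was scored as a fall in TR-FRET ratio relative to DMSO. Compound ranged in 3-fold steps over 10 points from 30 μM final; incubation ran 3 h at 25° C, detection antibodies a further 1.5 h. Reported as IC50.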

[1] = test system: NCI-H358 cells (K-Ras G12C); experiment: Potency assay: pERK in NCI-H358 cells; type: cell-based, human; details: Homo sapiens
Method in brief: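 4 h cpd, 37 °C; 10-pt 3-fold series, 10 mM DMSO top stock, duplicates. Readout pERK: AlphaLISA SureFire Ultra or In-Cell Western (IR-800CW secondary, DRAQ5 DNA stain). IC50, 4-PL fit vs log conc.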

KRAS G12S = KRAS G12S (Homo sapiens (Human), UniProt P01116+P62937, G12S); experiment: Ras-Raf (BRAF RBD) disruption / FRET / MOA assay, KRAS G12S; type: biochemical
Method in brief: as §5

K-Ras G12C = K-Ras G12C (Homo sapiens (Human), UniProt P01116+P62937, G12C); experiment: Ras-Raf (BRAF RBD) disruption / FRET / MOA assay, KRAS G12C; type: biochemical; details: KRAS G12C; Ras-Raf disruption/FRET/MOA assay; read-out: IC50* KRAS G12C FRET data
Protocol: as §1, §2, §3, §4
as §2, with “Compound was” for “Compound is”, “allophycocyanin was” for “allophycocyanin is”, “a K-Ras:RAF” for “a Ras:RAF”, “complex were” for “complex are”

NRAS G12C = NRAS G12C (Homo sapiens (Human), UniProt P01111+P62937, G12C); experiment: Ras-Raf (BRAF RBD) disruption / FRET / MOA assay, NRAS G12C; type: biochemical; details: read-out: IC50* NRAS G12C FRET data
Protocol: as §1, §2
This protocol may also be executed substituting other Ras proteins or nucleotides. […]

KRAS WT = KRAS WT (Homo sapiens (Human), UniProt P01116+P62937); experiment: Ras-Raf (BRAF RBD) disruption / FRET / MOA assay, KRAS WT; type: biochemical; details: read-out: IC50* KRAS WT FRET data
Protocol: as §1, §2, §3, §4
as §2, with “Compound was” for “Compound is”, “allophycocyanin was” for “allophycocyanin is”, “a K-Ras:RAF” for “a Ras:RAF”, “complex were” for “complex are”

K-Ras G13C = K-Ras G13C (Homo sapiens (Human), UniProt P01116+P62937, G13C); experiment: Ras-Raf (BRAF RBD) disruption / FRET / MOA assay, KRAS G13C; type: biochemical; details: KRAS G13C; Ras-Raf disruption/FRET/MOA assay; read-out: IC50* KRAS G13C FRET data
Protocol: as §1, §2, §3, §4
as §2, with “Compound was” for “Compound is”, “allophycocyanin was” for “allophycocyanin is”, “a K-Ras:RAF” for “a Ras:RAF”, “complex were” for “complex are”

NCI-H358 (K-Ras G12C) = experiment: CellTiter-Glo cell viability assay, NCI-H358; type: cell-based, human; details: Homo sapiens, NCI-H358, 120 h, NCI-H358, 5-day treatment; class symbols; read-out: Additional H358 Cell Viability assay data (K-Ras G12C, IC50)
Method in brief: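 Viability of K-Ras mutant lines is measured by ATP luminescence after five days of compound treatment. Percent of DMSO control is calculated and dose-response data are fitted with a four-parameter logistic equation.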

[2] = Ras-Raf disruption/FRET/MOA assay; class symbols; read-out: KRAS G12D FRET data IC50
[3] = NCI-H358, H358 KRAS G12C, read-out: pERK EC50
[4] = Ras-Raf disruption/FRET/MOA assay; class symbols; read-out: KRAS G12S FRET data IC50

Chain of K-Ras G13C (P01116-2 other isoform, or with tags, fused parts or gaps G13C): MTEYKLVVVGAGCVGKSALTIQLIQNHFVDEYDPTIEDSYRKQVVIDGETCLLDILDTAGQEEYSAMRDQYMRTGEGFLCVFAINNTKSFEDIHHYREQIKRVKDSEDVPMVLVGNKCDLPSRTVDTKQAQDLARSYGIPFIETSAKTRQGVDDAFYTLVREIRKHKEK
Chain of K-Ras G13C (P62937 whole entry): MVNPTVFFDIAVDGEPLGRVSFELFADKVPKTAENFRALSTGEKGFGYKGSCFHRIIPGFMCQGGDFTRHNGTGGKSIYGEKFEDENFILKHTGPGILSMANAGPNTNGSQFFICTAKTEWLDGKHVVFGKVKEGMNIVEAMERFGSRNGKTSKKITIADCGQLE
Chain of KRAS WT (P01116-2 other isoform, or with tags, fused parts or gaps): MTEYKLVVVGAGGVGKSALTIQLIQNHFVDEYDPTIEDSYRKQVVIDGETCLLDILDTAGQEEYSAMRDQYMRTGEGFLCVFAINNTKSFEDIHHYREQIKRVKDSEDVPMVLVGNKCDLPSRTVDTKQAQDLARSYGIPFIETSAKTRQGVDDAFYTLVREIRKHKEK
Chain of KRAS WT (P62937 whole entry): as the sequence (P62937 whole entry) above
Chain of K-Ras G12C (P01116-2 other isoform, or with tags, fused parts or gaps G12C): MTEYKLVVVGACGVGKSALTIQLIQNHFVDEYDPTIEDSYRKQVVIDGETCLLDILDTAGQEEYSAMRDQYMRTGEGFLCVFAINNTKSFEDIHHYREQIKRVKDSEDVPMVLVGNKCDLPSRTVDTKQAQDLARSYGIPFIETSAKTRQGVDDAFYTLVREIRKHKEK
Chain of K-Ras G12C (P62937 whole entry): as the sequence (P62937 whole entry) above
Chain of KRAS G12V (P01116-2 other isoform, or with tags, fused parts or gaps G12V): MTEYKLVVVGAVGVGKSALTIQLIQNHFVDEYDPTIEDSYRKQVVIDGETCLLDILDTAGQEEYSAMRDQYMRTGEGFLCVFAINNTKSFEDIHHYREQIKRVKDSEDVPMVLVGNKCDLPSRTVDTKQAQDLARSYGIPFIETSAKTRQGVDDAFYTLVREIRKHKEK
Chain of KRAS G12V (P62937 whole entry, canonical isoform): as the sequence (P62937 whole entry) above
Chain of KRAS G12D (P01116-2 other isoform, or with tags, fused parts or gaps G12D): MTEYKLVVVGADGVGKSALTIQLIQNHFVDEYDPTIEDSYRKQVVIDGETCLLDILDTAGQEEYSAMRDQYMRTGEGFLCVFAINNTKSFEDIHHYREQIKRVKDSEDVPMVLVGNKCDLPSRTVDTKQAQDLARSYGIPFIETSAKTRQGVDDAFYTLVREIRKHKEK
Chain of KRAS G12D (P62937 whole entry): as the sequence (P62937 whole entry) above
Chain of KRAS G12S (P01116-2 other isoform, or with tags, fused parts or gaps G12S): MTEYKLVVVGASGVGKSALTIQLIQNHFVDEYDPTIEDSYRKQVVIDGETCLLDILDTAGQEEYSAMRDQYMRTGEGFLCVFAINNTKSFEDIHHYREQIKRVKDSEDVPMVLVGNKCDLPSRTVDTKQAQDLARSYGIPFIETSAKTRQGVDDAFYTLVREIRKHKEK
Chain of KRAS G12S (P62937 whole entry): as the sequence (P62937 whole entry) above
Chain of NRAS G12C (P01111 whole entry G12C): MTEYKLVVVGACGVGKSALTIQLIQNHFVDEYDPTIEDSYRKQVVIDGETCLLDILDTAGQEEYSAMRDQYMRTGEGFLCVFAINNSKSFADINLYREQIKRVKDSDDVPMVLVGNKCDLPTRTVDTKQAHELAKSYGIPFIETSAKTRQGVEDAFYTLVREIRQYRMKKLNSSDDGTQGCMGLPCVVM
Chain of NRAS G12C (P62937 whole entry): as the sequence (P62937 whole entry) above

Row | IC50 (KRAS G12D; [2]) | EC50 [1, 3] | IC50 (KRAS G12S; [4]) | IC50 (K-Ras G12C) | IC50 (NRAS G12C) | Compound | IC50 (KRAS G12V) | IC50 (KRAS G12D; read-out: KRAS G12D FRET data IC50; Ras-Raf disruption/FRET/MOA assay; class symbols) | EC50 ([1]; NCI-H358, read-out: pERK EC50) | IC50 (KRAS G12S; read-out: KRAS G12S FRET data IC50; Ras-Raf disruption/FRET/MOA assay; class symbols) | IC50 (KRAS WT) | IC50 (K-Ras G13C) | IC50 (NCI-H358 (K-Ras G12C))
1 |  |  |  |  |  | C=CC(=O)N1CCN(C(=O)N(C)[C@H](C(=O)N[C@H]2Cc3nc(cs3)-c3ccc4c(c3)c(c(-c3cccnc3[C@H](C)OC)n4CC(F)(F)F)CC(C)(C)COC(=O)[C@@H]3CCCN(N3)C2=O)C(C)C)CC1 (atropisomer, axis not shown) [Example A464] | 0.01 to 0.1 µM | 0.01 to 0.1 µM | < 5 µM | 0.01 to 0.1 µM |  |  | 
2 | > 10 µM | < 5 µM | 1 to 10 µM | 1 to 10 µM | 1 to 10 µM | C=CC(=O)N1CC[C@H](C(=O)N(C)[C@H](C(=O)N[C@H]2Cc3nc(cs3)-c3ccc4c(c3)c(c(-c3cc(C5=CCN(C)CC5)cnc3[C@H](C)OC)n4CC)CC(C)(C)COC(=O)[C@@H]3CCCN(N3)C2=O)C(C)C)C1 (atropisomer, axis not shown) [Example A521] |  |  |  |  |  |  | 
3 | 1 to 10 µM |  | 1 to 10 µM | 0.01 to 0.1 µM |  | CCn1c(-c2cccnc2COC)c2c3cc(ccc31)-c1cc(O)cc(c1)C[C@H](NC(=O)[C@H](C(C)C)N(C)C(=O)C1CN(C(=O)/C=C/CN(C)C)C1)C(=O)N1CCC[C@H](N1)C(=O)OCC(C)(C)C2 [Example A071] | 1 to 10 µM |  |  |  | 1 to 10 µM | 0.01 to 0.1 µM | 
4 | > 10 µM | < 5 µM | 1 to 10 µM and > 10 µM | 0.1 to 1 µM and > 10 µM |  | C=CC(=O)N1CC[C@H](C(=O)N(C)[C@H](C(=O)N[C@H]2Cc3cc(O)cc(c3)-c3ccc4c(c3)c(c(-c3ccccc3CCOC)n4CC)C[C@H](C)COC(=O)[C@@H]3CCCN(N3)C2=O)C(C)C)C1 [Example A215] | 1 to 10 µM and > 10 µM |  |  |  | > 10 µM | > 10 µM | 
5 | > 10 µM | < 5 µM | 1 to 10 µM and > 10 µM | 0.1 to 1 µM and > 10 µM |  | C=CC(=O)N1CC[C@]2(CCCN([C@H](C(=O)N[C@H]3Cc4cc(O)cc(c4)-c4ccc5c(c4)c(c(-c4ccccc4CCOC)n5CC)CC(C)(C)COC(=O)[C@@H]4CCCN(N4)C3=O)C(C)C)C2=O)C1 [Example A217] | 1 to 10 µM and > 10 µM |  |  |  | 1 to 10 µM and > 10 µM | 1 to 10 µM and > 10 µM | 

Row | Compound | IC50 (KRAS G12D; [2]) | EC50 [1, 3] | IC50 (KRAS G12S; [4]) | IC50 (K-Ras G12C) | IC50 (NRAS G12C) | IC50 (KRAS G12V) | IC50 (KRAS G12D; read-out: KRAS G12D FRET data IC50; Ras-Raf disruption/FRET/MOA assay; class symbols) | EC50 ([1]; NCI-H358, read-out: pERK EC50) | IC50 (KRAS G12S; read-out: KRAS G12S FRET data IC50; Ras-Raf disruption/FRET/MOA assay; class symbols) | IC50 (KRAS WT) | IC50 (K-Ras G13C) | IC50 (NCI-H358 (K-Ras G12C))
6 | CCn1c(-c2cccnc2COC)c2c3cc(ccc31)-c1cc(O)cc(c1)C[C@H](NC(=O)[C@H](C(C)C)N(C)C(=O)c1ccc(NC(=O)/C=C/CN(C)C)cn1)C(=O)N1CCC[C@H](N1)C(=O)OCC(C)(C)C2 [Example A067] | 1 to 10 µM |  | 1 to 10 µM | 0.01 to 0.1 µM |  | 1 to 10 µM |  |  |  | 1 to 10 µM | 0.01 to 0.1 µM | 
7 | C=CC(=O)N1CC[C@H](C(=O)N(C)[C@H](C(=O)N[C@H]2Cc3cc(O)cc(c3)-c3ccc4c(c3)c(c(-c3ccccc3CCN3CCCC3)n4CC)CC(C)(C)COC(=O)[C@@H]3CCCN(N3)C2=O)C(C)C)C1 [Example A100] | > 10 µM | < 5 µM | > 10 µM | 1 to 10 µM |  | > 10 µM |  |  |  | > 10 µM | > 10 µM | 0.1 to 1 µM
8 | C=CC(=O)N(C)CCCC(=O)N(C)[C@H](C(=O)N[C@H]1Cc2cc(O)cc(c2)-c2ccc3c(c2)c(c(-c2cccnc2COC)n3CC)CC(C)(C)COC(=O)[C@@H]2CCCN(N2)C1=O)C(C)C [Example A101] | 1 to 10 µM | < 5 µM | 0.1 to 1 µM | 0.1 to 1 µM |  | 0.1 to 1 µM |  |  |  | 0.1 to 1 µM | 0.1 to 1 µM | 0.1 to 1 µM
